62 molecules from patent US9393221B2, “Methods and compounds for reducing intracellular lipid storage” (THE GENERAL HOSPITAL CORPORATION, priority 2011, dated 2016) can be followed below.

In the assay the test system is ATGL-KO iPSCs. Nature of the assay: High throughput iPSC chemical screening, Oil Red O (ORO) lipid accumulation. For Z-score: test concentration or dose not given here. It counts as cell-based, mouse. Conditions: for Z-score: normalized ORO level vs DMSO-treated cells, compound present during 7 days differentiation, 96-well, negative = decrease in lipid accumulation.

The structures appear in SMILES notation. Structures can show the parent of a compound that is named as a salt.

Turning to `COc1ccc(C(=O)OC2C[C@H]3CC[C@@H](C2)N3C)cc1OC.Cl` (stereo partly drawn) [Convolamine hydrochloride], the Z-score is on record as −1.0829.
On the same count and under the same terms, next, `COc1cc2cc3c4cc(OC)c(OC)cc4cc[n+]3c(C)c2cc1OC.O.[Cl-]` [Coralyne chloride hydrate]: 7.275.
The same measure, in the same setting: next, `C[C@]12C[C@H](O)[C@H]3[C@@H](CCC4=CC(=O)CC[C@@]43C)[C@@H]1CC[C@@H]2C(=O)CO` [Corticosterone]: −1.2709; `C[C@]12CCC(=O)C=C1CC[C@@H]1[C@@H]2C(=O)C[C@@]2(C)[C@H]1CC[C@]2(O)C(=O)CO` [Cortisone]: −1.8033.
Regarding `COC(=O)[C@H]1[C@H]2C[C@H]3c4[nH]c5ccccc5c4CCN3C[C@@H]2CC[C@@H]1O.Cl` [Corynanthine hydrochloride], the Z-score is −0.2498.
In turn, `O=C(O)c1cc(=O)c2c(OCC(O)COc3cccc4oc(C(=O)O)cc(=O)c34)cccc2o1` [Cromolyn disodium salt] yielded a Z-score of −1.7273.
On the same count and under the same terms, under `CC=CC(=O)N(CC)c1ccccc1C` [Crotamiton] stands 2.886; under `CC1(C)S[C@@H]2[C@H](NC(=O)C3(N)CCCCC3)C(=O)N2[C@H]1C(=O)O` [Cyclacillin], 2.402; under `CN1CCN(C(c2ccccc2)c2ccccc2)CC1` [Cyclizine hydrochloride], −0.9231.
On to `CN(C)CCC=C1c2ccccc2C=Cc2ccccc21` [Cyclobenzaprine hydrochloride], for which the Z-score is listed as −0.1421. Moreover, the “Rank in normalized ORO score from screen” value (glycolytic switch compounds) is 579.
The molecule `C[C@@H]1C[C@@H]([C@H](O)CC2CC(=O)NC(=O)C2)C(=O)[C@@H](C)C1` [Cycloheximide] yielded a Z-score of 56.1385.
For the molecule `NS(=O)(=O)c1cc2c(cc1Cl)NC(CC1CCCC1)NS2(=O)=O` (stereo not drawn) [Cyclopenthiazide], the Z-score was −1.4107.
In turn, `CN(C)CCOC(=O)C(c1ccccc1)C1(O)CCCC1` (stereo not drawn) [Cyclopentolate hydrochloride] registered a Z-score of 1.252.
Molecule `CN1CCC(=C2c3ccccc3C=Cc3ccccc32)CC1` [Cyproheptadine hydrochloride] showed a Z-score of −1.6013.
Molecule `CC(=O)O[C@]1(C(C)=O)CC[C@H]2[C@@H]3C=C(Cl)C4=CC(=O)[C@@H]5C[C@@H]5[C@]4(C)[C@H]3CC[C@@]21C` [Cyproterone acetate] showed a Z-score of −1.2528.
`N[C@@H]1CONC1=O` [D-cycloserine] yielded a Z-score of −1.0332.
`CN(C)/N=N/c1[nH]cnc1C(N)=O` [Dacarbazine] showed a Z-score of −0.3016.
Same read-out and setting: under `C#C[C@]1(O)CC[C@H]2[C@@H]3CCC4=Cc5oncc5C[C@]4(C)[C@H]3CC[C@@]21C` [Danazol] stands −1.2973; under `O=C1CN(/N=C/c2ccc(-c3ccc([N+](=O)[O-])cc3)o2)C(O)=N1` [Dantrolene sodium salt], −0.3347.
On to `Nc1ccc(S(=O)(=O)c2ccc(N)cc2)cc1` [Dapsone], for which the Z-score is −0.4061.
In the case of `COc1cccc2c1C(=O)c1c(O)c3c(c(O)c1C2=O)C[C@@](O)(C(C)=O)C[C@@H]3O[C@H]1C[C@H](N)[C@H](O)[C@H](C)O1` [Daunorubicin hydrochloride], the Z-score was 28.7571.
The same measure, in the same setting: next, `N=C(N)N1CCc2ccccc2C1` [Debrisoquin sulfate]: 0.2228.
On the same count and under the same terms, under `C[N+](C)(C)CCCCCCCCCC[N+](C)(C)C` [Decamethonium bromide] stands −0.0864.
The molecule `CC(=O)N(O)CCCCCNC(=O)CCC(=O)N(O)CCCCCNC(=O)CCC(=O)N(O)CCCCCN` [Deferoxamine mesylate] registered a Z-score of 12.8786.
`C[C@H](CCC(=O)O)[C@H]1CC[C@H]2[C@@H]3C(=O)C[C@@H]4CC(=O)CC[C@]4(C)[C@H]3CC(=O)[C@]12C` [Dehydrocholic acid]: the Z-score is given as −1.006.
`CC(=O)O[C@H]1CC[C@@]2(C)C(=CC[C@@H]3[C@@H]2CC[C@]2(C)C(=O)CC[C@@H]32)C1` [Dehydroisoandosterone 3-acetate] showed a Z-score of −0.697.
`CCN1C[C@]2(COC)CC[C@H](OC)[C@]34C5C[C@@H]6[C@@H](OC)C[C@@]7(OCO[C@@]7(C13)[C@@H](O)C24)C5[C@H]6OC` (stereo partly drawn) [Delcorine] had a Z-score of −1.4115.
`CCN1C[C@]2(COC)CC[C@H](O)[C@]34C1[C@@](O)([C@@H](OC)[C@H]23)[C@@]1(O)C[C@H](OC)[C@H]2C[C@@H]4[C@@H]1[C@H]2OC` [Delsoline]: the Z-score was −1.3301.
`CCN1C[C@]2(C)CC[C@H](OC)[C@@]34C1[C@]1(OCO[C@@]15C[C@H](OC)[C@H]1C[C@]3(O)[C@@H]5[C@H]1OC)[C@@H](OC(C)=O)[C@H]24` [Deltaline] gave a Z-score of −1.2966.
On the same count and under the same terms, under `CN(CCCCCCCCCCN(C)C(=O)Oc1cccc([N+](C)(C)C)c1)C(=O)Oc1cccc([N+](C)(C)C)c1` [Demecarium bromide] stands −0.6009; under `CN(C)[C@@H]1C(O)=C(C(N)=O)C(=O)[C@@]2(O)C(O)=C3C(=O)c4c(O)ccc(Cl)c4[C@@H](O)[C@H]3C[C@@H]12` [Demeclocycline hydrochloride], 1.787; under `CC[N+](CC)(CC(=O)Nc1c(C)cccc1C)Cc1ccccc1` [Denatonium benzoate], −0.1971.
Turning to `C[C@]12CC[C@H]3[C@@H](CCC4=CC(=O)CC[C@@]43C)[C@@H]1CC[C@@H]2C(=O)CO` [Deoxycorticosterone], the Z-score was found to be 0.6523.
On to `Cc1cc(N)c2ccccc2[n+]1CCCCCCCCCC[n+]1c(C)cc(N)c2ccccc21` [Dequalinium dichloride], for which the Z-score was determined as 42.6725.
Same read-out and setting: next, `CNCCCN1c2ccccc2CCc2ccccc21` [Desipramine hydrochloride]: 0.2168; `CC(=O)OCC(=O)[C@@]1(O)[C@H](C)C[C@H]2[C@@H]3CCC4=CC(=O)C=C[C@]4(C)[C@@]3(F)[C@@H](O)C[C@@]21C` [Dexamethasone acetate]: −1.3076; `CC1=NS(=O)(=O)c2cc(Cl)ccc2N1` [Diazoxide]: 0.5969.
For `CCCCOc1cc(C(=O)NCCN(CC)CC)c2ccccc2n1` [Dibucaine], the Z-score is on record as 0.2274.
Turning to `NS(=O)(=O)c1cc(Cl)c(Cl)c(S(N)(=O)=O)c1` [Dichlorphenamide], the Z-score worked out at 0.1624.
`O=C(O)Cc1ccccc1Nc1c(Cl)cccc1Cl` [Diclofenac sodium] yielded a Z-score of −1.137.
As to `Cc1onc(-c2c(Cl)cccc2Cl)c1C(=O)N[C@@H]1C(=O)N2[C@@H]1SC(C)(C)[C@@H]2C(=O)O` [Dicloxacillin sodium salt], the Z-score is −0.1893.
For `O=c1oc2ccccc2c(O)c1Cc1c(O)c2ccccc2oc1=O` [Dicumarol], the Z-score amounted to 1.966.
`CCN(CC)CCOC(=O)C1(C2CCCCC2)CCCCC1` [Dicyclomine hydrochloride, reference compound] gave a Z-score of −2.1533.
Still for that read-out and setting: next, `C/C=C(/C(=C/C)c1ccc(O)cc1)c1ccc(O)cc1` [Dienestrol]: 0.1268; `CCN(CC)C(=O)N1CCN(C)CC1` [Diethylcarbamazine citrate]: −1.1872.
The molecule `CC/C(=C(/CC)c1ccc(O)cc1)c1ccc(O)cc1` [Diethylstilbestrol] registered a Z-score of −0.977.
The molecule `CC(=O)OCC(=O)[C@@]1(OC(C)=O)[C@@H](C)C[C@H]2[C@@H]3C[C@H](F)C4=CC(=O)C=C[C@]4(C)[C@@]3(F)[C@@H](O)C[C@@]21C` [Diflorasone Diacetate] showed a Z-score of 0.6842.
For the molecule `O=C(O)c1cc(-c2ccc(F)cc2F)ccc1O` [Diflunisal], the Z-score is recorded as −0.3972.
For `C[C@]12CC[C@H](O)C[C@H]1CC[C@@H]1[C@@H]2CC[C@]2(C)[C@@H](C3=CC(=O)OC3)CC[C@]12O` [Digitoxigenin], the Z-score was −0.9264.
On the same count and under the same terms, next, `C[C@]12CC[C@H](O)C[C@H]1CC[C@@H]1[C@@H]2C[C@@H](O)[C@]2(C)[C@@H](C3=CC(=O)OC3)CC[C@]12O` [Digoxigenin]: −1.0521; `C[C@H]1O[C@@H](O[C@H]2[C@@H](O)C[C@H](O[C@H]3[C@@H](O)C[C@H](O[C@H]4CC[C@@]5(C)[C@H](CC[C@@H]6[C@@H]5C[C@@H](O)[C@]5(C)[C@@H](C7=CC(=O)OC7)CC[C@]65O)C4)O[C@@H]3C)O[C@@H]2C)C[C@H](O)[C@@H]1O` [Digoxin]: −0.815; `CC(C)[C@@]1(NC(=O)[C@@H]2C[C@@H]3c4cccc5[nH]cc(c45)C[C@H]3N(C)C2)O[C@@]2(O)[C@@H]3CCCN3C(=O)[C@H](Cc3ccccc3)N2C1=O` [Dihydroergocristine mesylate]: 0.9157.
`CN[C@@H]1[C@H](O[C@H]2[C@H](O[C@H]3[C@H](O)[C@@H](O)[C@H](NC(=N)N)[C@@H](O)[C@@H]3NC(=N)N)O[C@@H](C)[C@]2(O)CO)O[C@@H](CO)[C@H](O)[C@H]1O` [Dihydrostreptomycin sulfate] gave a Z-score of 1.253.
As for `COc1cc(C(=O)OCCCN2CCCN(CCCOC(=O)c3cc(OC)c(OC)c(OC)c3)CC2)cc(OC)c1OC` [Dilazep dihydrochloride], the Z-score was determined as 0.1967.
Turning to `CN(C(=O)C(Cl)Cl)c1ccc(OC(=O)c2ccco2)cc1` [Diloxanide furoate], the Z-score is on record as −0.9785.
Still for that read-out and setting: under `COc1ccc([C@@H]2Sc3ccccc3N(CCN(C)C)C(=O)[C@@H]2OC(C)=O)cc1` [Diltiazem hydrochloride] stands −0.974; under `CN(C)CCCSC(=N)N` [Dimaprit dihydrochloride], −1.2574.
The molecule `CN(C)CCOC(c1ccccc1)c1ccccc1.Cn1c(=O)c2[nH]c(Cl)nc2n(C)c1=O` [Dimenhydrinate] had a Z-score of −0.7776.
In the case of `CC1(C)OC(=O)NC1=O` [Dimethadione], the Z-score was −0.9493.
The same measure, in the same setting: next, `CCCCc1cc2ccccc2c(OCCN(C)C)n1` [Dimethisoquin hydrochloride]: 0.4631; `CCCCC[C@H](O)/C=C/[C@@H]1[C@@H](C/C=C\CCCC(=O)O)[C@@H](O)C[C@H]1O` [Dinoprost trometamol]: 0.7612; `COc1ccc(C(=O)c2ccccc2O)c(O)c1` [Dioxybenzone]: −1.6584.
